From patent US20170029823A1, “TRUNCATED TRK B AND TRK C ANTAGONISTS AND USES THEREOF” (priority 2015, published 2017)
“Also recorded” adds a separate entry of the source.

Legend:
[1] = test system: RHOP347S (RHOP) transgenic mouse model of retinitis pigmentosa; assay: ONL thickness by FD-OCT after intravitreal injection; format: in vivo; details: PD98059 intravitreal at post-natal day 17
Procedure: (§1) Intravitreal injections were performed as follows. Briefly, mice were anesthetized with isoflurane, delivered through a gas anesthetic mask. The drugs were delivered using a Hamilton syringe. Injections were done using a surgical microscope to visualize the Hamilton entry into the vitreous chamber and confirm delivery of the injected solution. After the injection, the syringe was left in place for 30 sec and slowly withdrawn from the eye to prevent reflux. Experimental right eyes were injected with the test agents and control left eyes serve as internal control.
(§2) All intravitreal injections delivered 2 μl of the MAPK/ERK inhibitor PD98059 (10 mM stock) or the selective-TrkC antagonist 3F (1 mM stock). Control eyes were injected with 50% DMSO for PD98059 assays or 5% DMSO for the compound 3F assays. Intravitreal injections in wild-type or RHOP-mice were made at post-natal day 17. Experimental time points to measure ONL thinning were set at post-natal days 18, 22, 24 and 28. The end point for analyzing the effect of the compounds on the expression of p-Erk and p-Akt was at post-natal day 18 (24 hours after intravitreal injection).
A noninvasive prototype spectrometer-based FD-OCT system was used to acquire the retinal images. FD-OCT is a noninvasive method that allows time-kinetic studies in the same animal, with axial resolution in tissue nominally better than 4 μm and repeatability of the measurements from B-scans better than 1 μm. Data acquisition was performed using custom software written in C++ for rapid frame grabbing, processing, and display of two-dimensional images. Manual segmentations were used to measure the thicknesses of the mice retinas. Mice were anesthetized using isoflurane/O2 and placed on a platform, and the head was oriented to an angle at which the eye was properly aligned to the optical beam. The pupils were dilated with a topical solution (atropine sulfate 1%; Alcon, Fort Worth, Tex.). Refraction of light at the cornea was cancelled by placing over the eye a generic artificial tear gel. Alignment of the optical system to the […] retina required a few minutes and was followed by rapid acquisition of data (about 5 s/vol). During retinal scanning, three volumes were acquired in different sectors of the retina containing the ON head as landmark.
After processing, three B-scans were randomly selected from each volume. The retinal thickness measurements were performed with Matlab software using the saved data. In each B-scan, the thickness of the nerve fiber layer (NFL)—ganglion cell layer (GCL)—inner plexiform layer (IPL), hereafter referred to as NGI and outer nuclear layer (ONL) was measured at three adjacent points. […]

p-Erk and p-Akt = p-Erk and p-Akt immunohistochemistry in RHOP retinas after intravitreal injection; format: in vivo, mouse; details: post-natal day 18, 24 h after intravitreal PD98059, vs vehicle-injected eye
Procedure: as §1
as §2, with “injection). […]” for “injection).”
For each experimental condition, a minimum of 6 images were acquired from 3 sections cut from different areas of the retina (n=3-4 retinas per group). The area of the profiles of the cells expressing p-Akt and p-Erk was measured using ImageJ software. […]

TNF-α = TNF-α mRNA (PCR) and protein (ELISA) in rMC-1 cells; format: cell-based; details: NT-3 (10 nM) or LPS (1 μg/ml) for 6 hrs
Excerpt: FIG. 7A-FIG. 7D illustrates development and validation of a TrkC.T1 inhibitor that prevents TrkC.T1-mediated induction of TNF-α FIG. 7A The mRNA levels of TrkC-FL and TrkC.T1 were quantified by PCR, after infection with lentivirus pLKO.Scr (scrambled control) or with pLKO.1 (expressing a unique shRNA (SEQ ID NO: 1) targeting TrkC.T1 mRNA specifically). Results are normalized to reference GAPDH mRNA. Data are expressed as the mean+SEM; n=3 independent experiments each in triplicate. […] FIG. 7B and FIG. 7C In rMC-1 cells the levels of TNF-α mRNA and protein were quantified by PCR or by ELISA after infection with pLKO.1TrkC.T1 or pLKOScr control. NT-3 and LPS treatment induce TNF-α and pLKO.1 prevents it. Data are standardized to untreated control. Average±sem, n=3 independent experiments each in triplicate. FIG. 7D In spinal cord of ALS G93A versus wild type mice the levels of TNF-α mRNA were assessed by quantitative PCR. Results were normalized to GAPDH. Data are expressed as the mean±SEM n=8 independent spinal cords per group. A-F t-test was applied for statistical analysis. * p<0.05, ** p<0.01 versus control. Stars with brackets indicate differences between the indicated groups.
In rMC-1 cells treatment with NT-3 (10 nM) or LPS (1 μg/ml) for 6 hrs increases TNF-α mRNA (FIG. 7B) and protein (FIG. 7C).

TrkC.T1 = target: T1, TrkC.T1 (Rattus norvegicus, UniProt Q03351); assay: p-Erk and p-Akt western blot after NT-3 stimulation in 293-TrkC.T1 cells; format: cell-based; details: non-infected 293-TrkC.T1 cells, NT-3 4 nM for 10 min
T1 construct: expressed in transfected cells; host or cells: HEK293 (stably transfected subclone 293-TrkC.T1)
T1 sequence (Q03351 32-612 isoform Q03351-5 limits assumed): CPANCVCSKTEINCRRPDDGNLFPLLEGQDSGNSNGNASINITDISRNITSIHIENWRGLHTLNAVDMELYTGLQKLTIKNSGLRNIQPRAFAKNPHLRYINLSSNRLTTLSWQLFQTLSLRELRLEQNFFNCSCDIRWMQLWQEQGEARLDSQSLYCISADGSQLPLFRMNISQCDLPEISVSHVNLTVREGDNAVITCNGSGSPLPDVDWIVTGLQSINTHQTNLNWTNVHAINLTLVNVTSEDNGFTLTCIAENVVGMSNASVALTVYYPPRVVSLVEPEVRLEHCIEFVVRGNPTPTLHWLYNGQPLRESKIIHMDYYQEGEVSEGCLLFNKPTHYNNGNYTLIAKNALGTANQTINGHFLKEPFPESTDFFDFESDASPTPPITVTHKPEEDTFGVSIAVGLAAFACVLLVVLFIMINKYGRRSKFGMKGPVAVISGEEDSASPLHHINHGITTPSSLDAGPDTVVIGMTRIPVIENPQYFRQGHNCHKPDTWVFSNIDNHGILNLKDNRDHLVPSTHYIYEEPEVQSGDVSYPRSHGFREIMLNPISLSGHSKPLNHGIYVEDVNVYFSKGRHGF
Procedure: (§3) FIG. 15A-FIG. 15D illustrates TrkC.T1 directly activates MAPK/Erk in Müller cells. Representative western blots showing the levels of TrkC-FL (140 KDa), TrkC.T1 (110 kDa), p-Erk 1/2 (44 and 42 KDa) and p-Akt (60 KDa) in HEK293 cell expression system and rMC-1 cells, with or without stimulation of 4 nM NT-3 for 10 min. […] FIG. 15B, FIG. 15D Densitometric quantification of p-Erk and p-Akt signal standardized to untreated controls (arbitrary value of 1). The data represent relative protein levels±SEM. n=3 independent experiments. * p<0.05, ** p<0.01 and ***p<0.001.
(§4) HEK293 cells were transfected with human full-length TrkC cDNA (293-TrkC-FL) or with rat TrkC.T1 cDNA (293-TrkC.T1). The cells are stably transfected subclones that express high levels of TrkC-FL or TrkC.T1 receptors and are respectively grown under drug selection (0.5 mg/ml G418 or 1 mg/ml Puromycin).
(§5) All cells types were serum-starved for 1 hour. […]
(§6) Whole retinas either from culture or freshly dissected were collected and added to 200 μL lysis buffer (20 mM Tris-HCl pH 7.5, 137 mM NaCl, 2 mM EDTA, 1% Nonidet P-40) containing a protease inhibitor cocktail (Roche). […] Protein quantities were assessed using the Bradford assay (BioRad), and 40 μg of total protein was mixed with Laemmli buffer, boiled for 5 minutes and loaded onto 10% gels. […] Blots were scanned and quantified using ImageJ software. […]

TrkC-FL = target: T2, TrkC-FL (Homo sapiens, UniProt Q16288); assay: p-Erk and p-Akt western blot after NT-3 stimulation in 293-TrkC-FL cells; format: cell-based; details: NT-3 4 nM for 10 min
T2 construct: transfected with human full-length TrkC cDNA (293-TrkC-FL); expressed in transfected cells; host or cells: HEK293 (stably transfected subclone 293-TrkC-FL)
T2 sequence (Q16288 32-839): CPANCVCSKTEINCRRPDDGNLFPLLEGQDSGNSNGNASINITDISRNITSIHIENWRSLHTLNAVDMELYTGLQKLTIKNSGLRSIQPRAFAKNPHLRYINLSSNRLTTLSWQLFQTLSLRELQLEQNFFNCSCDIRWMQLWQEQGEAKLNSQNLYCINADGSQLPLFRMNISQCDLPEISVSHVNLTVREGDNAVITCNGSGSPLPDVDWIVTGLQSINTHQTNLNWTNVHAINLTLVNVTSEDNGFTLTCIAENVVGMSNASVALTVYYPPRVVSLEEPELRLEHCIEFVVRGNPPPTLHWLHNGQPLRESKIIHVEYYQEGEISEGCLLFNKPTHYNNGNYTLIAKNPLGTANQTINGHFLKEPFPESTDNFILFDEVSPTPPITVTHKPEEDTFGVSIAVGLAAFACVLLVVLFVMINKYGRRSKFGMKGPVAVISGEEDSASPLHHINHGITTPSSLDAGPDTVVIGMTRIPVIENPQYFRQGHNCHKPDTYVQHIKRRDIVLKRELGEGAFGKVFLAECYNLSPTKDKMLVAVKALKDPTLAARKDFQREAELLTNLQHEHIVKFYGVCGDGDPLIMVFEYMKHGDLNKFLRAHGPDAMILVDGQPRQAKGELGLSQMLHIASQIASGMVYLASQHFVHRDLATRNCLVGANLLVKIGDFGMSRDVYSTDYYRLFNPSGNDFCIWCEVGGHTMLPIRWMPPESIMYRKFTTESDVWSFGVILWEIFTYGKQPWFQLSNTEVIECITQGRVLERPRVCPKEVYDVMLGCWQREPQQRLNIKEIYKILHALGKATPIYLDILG
Procedure: as §3, §4, §5, §6

[2] = target: T3, endogenous TrkC.T1 in rMC-1 cells (Rattus norvegicus, UniProt Q03351); assay: p-Erk and p-Akt western blot after NT-3 stimulation in rMC-1 cells; format: cell-based; details: rMC-1 infected and rMC-1 wild-type cells, 4 nM NT-3 for 10 min
T3 construct: endogenous TrkC.T1 mRNA in r-MC-1 cells was silenced; endogenous in cells; host or cells: rMC-1 (Müller glial cell line)
T3 sequence (Q03351 32-612 isoform Q03351-5 limits assumed): as the sequence (Q03351 32-612 isoform Q03351-5 limits assumed) above
Procedure: as §3
A short hairpin RNA (shRNA) specifically targeting a unique 3′ sequence of the TrkC.T1 mRNA was designed using the DSIR algorithm. The TrkC.T1-targeting shRNA sequence […] (SEQ ID NO: 1), or a scrambled control sequence […] […] TrkC.T1-specific depletion was determined by real-time quantitative PCR and by Western blotting.
as §5, §6

[3] = target: human full-length TrkC expressed on HEK293 cells (293-TrkC-FL) (human) (UniProt Q16288); assay: cell-based or functional assay
Sequence of human full-length TrkC expressed on HEK293 cells (293-TrkC-FL) (human) (Q16288 32-839): as the sequence (Q16288 32-839) above

[4] = target: rat TrkC.T1 expressed on HEK293 cells (293-TrkC.T1) (rat) (UniProt Q03351); assay: cell-based or functional assay
Sequence of rat TrkC.T1 expressed on HEK293 cells (293-TrkC.T1) (rat) (Q03351 32-864): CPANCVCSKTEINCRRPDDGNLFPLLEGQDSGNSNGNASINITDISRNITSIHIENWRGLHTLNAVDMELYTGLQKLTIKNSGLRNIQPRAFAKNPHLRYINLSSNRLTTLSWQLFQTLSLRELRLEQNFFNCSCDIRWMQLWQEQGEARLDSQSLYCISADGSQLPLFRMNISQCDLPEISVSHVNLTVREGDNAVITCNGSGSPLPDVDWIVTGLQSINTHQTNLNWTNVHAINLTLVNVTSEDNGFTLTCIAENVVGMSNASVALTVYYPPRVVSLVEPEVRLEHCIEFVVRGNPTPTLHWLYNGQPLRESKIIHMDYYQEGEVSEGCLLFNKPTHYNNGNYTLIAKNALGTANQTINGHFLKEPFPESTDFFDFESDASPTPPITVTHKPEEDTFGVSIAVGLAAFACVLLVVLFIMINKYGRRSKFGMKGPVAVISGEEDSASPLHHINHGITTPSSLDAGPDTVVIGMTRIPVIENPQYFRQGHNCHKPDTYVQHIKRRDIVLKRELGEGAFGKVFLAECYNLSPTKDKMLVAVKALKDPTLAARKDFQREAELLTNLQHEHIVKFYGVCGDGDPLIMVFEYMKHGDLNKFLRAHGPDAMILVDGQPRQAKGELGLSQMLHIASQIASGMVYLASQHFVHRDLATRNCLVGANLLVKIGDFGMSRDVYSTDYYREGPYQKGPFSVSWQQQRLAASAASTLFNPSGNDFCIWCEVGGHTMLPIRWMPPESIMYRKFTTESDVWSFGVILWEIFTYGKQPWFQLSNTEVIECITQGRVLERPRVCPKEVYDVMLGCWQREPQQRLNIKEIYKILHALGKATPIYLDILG

Molecule: COc1cccc(-c2cc(=O)c3ccccc3o2)c1N [PD98059]
- ONL thickness vs vehicle-injected eye ([1]; RHOP mice, post-natal day 22 (did not reach significant values)): slightly bigger
- ONL thickness vs vehicle-injected eye ([1]; RHOP mice, post-natal day 24): clear protective effect; also recorded: bigger
- ONL thickness vs vehicle-injected eye ([1]; RHOP mice, post-natal day 28): still larger; also recorded: bigger
- ONL thickness vs vehicle-injected eye ([1]; WT mice): No changes
- block of p-Erk in Müller cells (p-Erk and p-Akt): 030%
- p-Erk signal (immunoreactivity) in Müller cells (p-Erk and p-Akt): abolished; also recorded: reduced

Molecule: neurotrophin-3 [NT-3]
- TNF-α mRNA and protein (TNF-α): increases; also recorded: induce
- increase in p-Erk levels (TrkC.T1): ~2 fold
- increase in p-Akt levels (TrkC-FL): ~1.5
- increase in p-Erk (TrkC-FL): ~2.5 fold
- levels of p-Akt [2]: did not change

B1: neurotrophin-3 (NT-3) (ligand, UniProt P20783 139-257, looked up)
chain: YAEHKSHRGEYSVCDSESLWVTDKSSAIDIRGHQVTVLGEIKTGNSPVKQYFYETRCKEARPVKNGCRGIDDKHWNSQCKTSQTYVRALTSENNKLVGWRWIRIDTSCVCALSRKIGRT
- p-Akt level (Western blot densitometry) after 4 nM NT-3 for 10 min [3]: 1.5 fold
- p-Erk level (Western blot densitometry) after 4 nM NT-3 for 10 min [3]: 2.5 fold
- p-Erk level (Western blot densitometry) after 4 nM NT-3 for 10 min, non-infected 293-TrkC.T1 cells [4]: 2 fold
